The record followed here is US20060058268A1, “Compounds and methods for treating diabetic vascular diseases” (priority 2004, published 2006).

As usually defined, the IC50 is the midpoint of a concentration-inhibition curve.

One series deals with cells. It is filed as cell-based. Also on record: unit not given beside the values. How it is done: The plates are incubated at 37° C., 5% CO2 overnight (approximately 16 hours). The next day the plates are checked under the microscope to see if there are any visual signs of toxicity. Records are made of any cell death, debris, or morphology changes, as well as insoluble compounds (particulate or turbity).

The next series relates to VCAM-1. The series can be described thus: VCAM-1 assay with ELISA readout (Examples 5-6). It is filed as cell-based. As to conditions: for IC50: TNF added with compound, incubated overnight (approximately 16 hours). On the technique in general: An ELISA detects its analyte on a solid surface through an enzyme-linked reagent.

`CC(C)(C)c1cc(SCc2ccc(C(F)(F)F)cc2)cc(C(C)(C)C)c1O` [(2,6-di-tert-butyl-4-thio(4′-(trifluoromethyl)benzyl)phenol]: the LD50 in the series on cells turned out to be 300. In addition, the IC50 in the series on VCAM-1 came out at 5 µM.
`CC(C)(Sc1cc(C(C)(C)C)c(O)c(C(C)(C)C)c1)Sc1cc(C(C)(C)C)c(OCc2ccc([N+](=O)[O-])cc2)c(C(C)(C)C)c1` [Phenol, 4-[[1-[3,5-bis(1,1-dimethylethyl)4-[(4-nitrophenyl)methoxy]phenyl]thio]-1-methylethyl]thio]2,6-bis(1,1-dimethylethyl)-]: in the series on cells, the LD50 was above 100. For the same compound, the “VCAM-1 inhibition at [μM]” value in the series with VCAM-1 (at 50 μM) worked out at 30% at 50.
In the series with cells, “Butanedioic acid, (1-methylethylidine)bis[thio[2,6-bi(1,1-dimethylethyl)-4,1-phenylene}}ester” showed an LD50 of 25. For the same compound, the IC50 in the series with VCAM-1 was above 50 µM.
